Measured values published in patent publication US10004791B2, “Peptide vaccines against PCSK9” (AFFIRIS AG, priority 2014, dated 2018).

Assay: Reduction of total cholesterol (TC) in treated animals, additional experiments (1 μg net peptide, five injections)
Assay type: in vivo, mice
Settings: 5 animals per group, 5 x 1 μg net peptide
Method: All plasma samples were collected two weeks after the final immunization and equality treated. Total cholesterol (TC) measurements were performed simultaneously for all samples and side by side compared to their related controls (originals sequence and negative control). The simultaneous quantitative measurement of the plasma TC levels in mg/dL was measured by LabAssay™ Cholesterol Kit (Wako). In details, upon incubation with the chromogen reagent containing cholesterol esterase, the cholesterol esters in the samples were decomposed into free cholesterol and fatty acids. Subsequently the free cholesterol was oxidized by the cholesterol oxidase, leading to the simultaneously release of hydrogen peroxide. The produced hydrogen peroxide let DAOS and 4-Aminoantipyrin oxidize and condensate quantitatively by peroxidase (HRP), which produced blue pigment. Optical density was measured at 600 nm and quantification of the TC was calculated according to a standard curve.
In order to evaluate the ability of selected VARIOTOPE® vaccine candidates to reduce TC and to compare the magnitude of TC reduction in VARIOTOPE® treated animals with the TC reduction in animals treated with a vaccine containing the original sequence, 5 to 10 mice per group were injected five times in 2 week intervals with vaccines containing 1 μg of net peptide. […]

## PEEDGTRFHRQASL [SEQ ID NO: 24]
Control group set as 100%, result in words
  TC values in comparison to the control group (FIG. 4): possesses the ability to reduce TC levels compared to the negative control
Original sequence group set to 0%, positive = higher TC
  TC levels compared to the original peptide containing vaccine (FIG. 5): +9%
